Assay: Autosampler stability of extracted dog plasma samples at 4 °C
Type: physicochemical
Experimental: The stability of extracted dog and mouse plasma samples in the autosampler at 4 °C was established for 24 and 48 h. Except for GEM-IB, in mouse and dog plasma extracts, all analytes were within ±20% of the nominal enriched concentration for up to 48 h in the autosampler. GEM-IB was stable for up to 24 h under these conditions.
Method development and validation was conducted following applicable FDA guidelines for bioanalytical assays, as considered fit for purpose. Specificity. Endogenous interferences were excluded by analysis of blank plasma from 6 different individual lots of plasma. The lower limit of quantification (LLOQ) was determined as the lowest concentration consistently achieving an accuracy better than ±20% of the nominal concentration, with imprecision ≤20%. Predefined acceptance criteria. The performance of the assay was considered acceptable if intra- and inter-day imprecision (coefficient of variance, %CV) at each concentration was ≤15%, except at the LLOQ (≤20%). Intra- and inter-day accuracy had to be ±15% of the nominal value, except at the LLOQ (±20%). Calibration curves had to have a correlation coefficient (r) of 0.99 or better. Analytical recovery and imprecision. Intra- and inter-day analytical accuracy and imprecision were tested at least at four concentration levels depending on the LLOQ for each compound. Intra-day imprecision and accuracy were determined with n = 6 per QC level. Inter-day imprecision and accuracy were measured over 3 days, with six replicates for each QC concentration (n = 18). Extraction efficiency and matrix effect. Extraction efficiency for GEM-IB and metabolites was established by comparing the signals of the analytes after the extraction of QCs (n = 6/concentrations), with the signals of the extracted blank matrix spiked with the respective concentrations of analytes after the extraction procedure. The matrix effect was determined by comparing the analyte LC-MS/MS signal after spiking of the analyte into the extracted blank matrix (matrix from 6 different individual lots, analyte concentrations as for the QC samples) with the HPLC-MS/MS signal of the same amount of analyte in neat solution [25]. Carry-over. Carry-over was assessed by injecting blank buffer samples after analysis of the highest calibrators. Carry-over was considered insignificant if there was no signal at the relevant retention times exceeding 20% of the analyte signals at the LLOQ. Stability. QC samples were freshly prepared. One set was extracted and was analyzed immediately to determine baseline signals. Analyte stability in plasma was evaluated at two QC concentration levels (n = 3/concentration level) under different conditions: 1, 2, and 24 h at room temperature and at 4 °C. In addition, stability after extraction was determined after 24 h and 48 h at 4 °C in the autosampler and for up to 3 freeze (−70 °C)–thaw (ambient) cycles. Stability was assessed by comparing analyte concentrations with baseline (t0) concentrations. Stability was assumed when the results were within ±20% of the baseline concentrations. Long-term stability estimates were performed by re-extraction of samples used during the PK study (n = 6). Samples were initially analyzed for the PK assessment and were stored for 1.5 years (GEM-IB and IB) and 2.5 years (GEM, GEMMP, dFdU, and dFdU-MP) at <−70 °C prior to reanalysis. Stability was assessed by comparing analyte concentrations with the initial assessments. Stability was acceptable when the results were within ±20% of the baseline concentrations and the percent standard deviation (%-SD) was below 25%.

Row | SMILES | %-ACC (% accuracy vs nominal) (24 hours autosampler 4 °C) [%] | %-ACC (% accuracy vs nominal) (48 hours autosampler 4 °C) [%]
1 | Nc1ccn([C@@H]2O[C@H](CO)[C@@H](O)C2(F)F)c(=O)n1 [GEM, gemcitabine] | 100.7 | 106.8
2 | CCCCCN(C)CCC(O)(P(=O)(O)O)P(=O)(O)OP(=O)(O)OC[C@H]1O[C@@H](n2ccc(N)nc2=O)C(F)(F)[C@@H]1O (stereo partly drawn) [GEM-IB] | 86.2 | 63.4
3 | Nc1ccn([C@@H]2O[C@H](COP(=O)(O)O)[C@@H](O)C2(F)F)c(=O)n1 [GEMMP, gemcitabine-5′-phosphate] | 92.4 | 90.0
4 | CCCCCN(C)CCC(O)(P(=O)(O)O)P(=O)(O)O [IB, ibandronate] | 111.2 | 107.7
5 | O=c1ccn([C@@H]2O[C@H](CO)[C@@H](O)C2(F)F)c(=O)[nH]1 [dFdU, 2′,2′-difluoro-2′-deoxyuridine] | 99.0 | 102.0
6 | O=c1ccn([C@@H]2O[C@H](COP(=O)(O)O)[C@@H](O)C2(F)F)c(=O)[nH]1 [dFdUMP, 2′,2′-difluoro-2′-deoxyuridine-5′-phosphate] | 92.6 | 84.8

Source: publication PMC11767451, “Novel Approaches to Monitor Pharmacokinetics and Metabolism of Gemcitabine-Ibandronate Conjugate in Mice and Dogs” (Molecules, 2025)
